Laboratory results published in PMC12291762 (Antioxidants, 2025).

Tests used:
[1] = molecular target: T1, COX-1 (Ovis aries, UniProt P05979); assay: Fluorometric COX-1 inhibitor screening kit; type: biochemical; design: purchased Abcam ab204698; conditions: mean ± standard error, three independent measurements
T1 sequence (P05979 25-600): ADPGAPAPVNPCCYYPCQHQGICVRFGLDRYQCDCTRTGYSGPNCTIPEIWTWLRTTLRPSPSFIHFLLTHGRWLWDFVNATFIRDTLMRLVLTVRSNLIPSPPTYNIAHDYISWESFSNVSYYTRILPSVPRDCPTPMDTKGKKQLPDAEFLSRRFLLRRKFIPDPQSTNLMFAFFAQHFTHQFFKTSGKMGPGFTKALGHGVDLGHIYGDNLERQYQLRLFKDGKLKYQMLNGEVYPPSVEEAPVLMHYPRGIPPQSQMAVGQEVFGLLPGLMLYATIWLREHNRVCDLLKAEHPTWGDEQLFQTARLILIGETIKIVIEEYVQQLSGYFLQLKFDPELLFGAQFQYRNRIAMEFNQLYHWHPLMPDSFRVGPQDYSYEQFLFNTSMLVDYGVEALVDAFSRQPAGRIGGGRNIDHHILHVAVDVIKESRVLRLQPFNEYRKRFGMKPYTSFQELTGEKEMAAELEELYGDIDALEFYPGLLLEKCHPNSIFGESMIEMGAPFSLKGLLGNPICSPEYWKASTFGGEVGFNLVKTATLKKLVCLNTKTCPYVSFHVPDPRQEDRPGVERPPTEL
Method: The inhibitory activity of the tested compounds against COX-1 and COX-2 isoforms was assessed using fluorometric cyclooxygenase inhibitor screening kits (Catalog Numbers ab204698 and ab283401, respectively; Abcam, Cambridge, UK). These assays detect the formation of prostaglandin G2, a product of COX enzymatic activity, via fluorometric measurement.
Stock solutions of the test compounds were prepared at a concentration of 5 mM in DMSO and subsequently diluted with the same solvent to obtain the test solutions. For the assay preparation, 2 μL of each test solution was diluted with 8 μL of COX assay buffer. The solvent control (SC) consisted of 2 μL of DMSO and 8 μL of assay buffer, while the enzyme control (EC) contained 10 μL of assay buffer alone. Sample wells (S) received 10 μL of the diluted test solutions. All other steps were in accordance with the manufacturer’s protocol and the previously published article. […] The percentage of inhibition was calculated as follows:(3) % Relative Inhibition=Slope of EC−Slope of S/Slope of EC×100
Fluorescence measurements were conducted on a BioTek Synergy LX multi-mode reader (Winooski, VT, USA).

[2] = test system: local oxidative stress parameters; assay: Local redox state (edema-affected paw tissue homogenate) 24 h after carrageenan; type: in vivo, Wistar albino rats; conditions: inflamed paw tissue
Method: (§1) Following 24 h of carrageenan-induced paw edema inflammation model and intraperitoneal anesthesia induced by ketamine/xylazine (100/10 mg/kg of BW), the animals were sacrificed, while whole-blood samples and edema-affected paw tissues were isolated. After centrifugation of whole blood, plasma and erythrocyte lysate samples were separated for further examination of the applied compounds’ effects on the systemic redox balance state. Pro-oxidative markers including superoxide anion radical (O2∙^−), hydrogen peroxide (H2O2) nitrites (NO2^−), and index of lipid peroxidation measured as thiobarbituric acid (TBA) reactive substances (TBARS) were determined from plasma samples, while the antioxidant capacity, including superoxide dismutase (SOD) and catalase (CAT) activity, as well as the reduced glutathione (GSH) level were examined in erythrocyte lysate samples [46]. […] Edema-affected paw tissue samples were weighed (100 mg) and homogenized (OmniPrep™ multi-sample homogenizer, Omni International, Kennesaw, GA, USA) in 900 µL phosphate buffer on ice (pH = 7.4), and centrifuged at 12,000 rpm for 20 min. These supernatant samples were used for the determination of the aforementioned pro-oxidative and antioxidative parameters levels. All oxidative stress analyses were performed spectrophotometrically using a Shimadzu UV 1800 spectrophotometer (Kyoto, Japan).
(§2) Determination of the O2∙^− level was conducted by adding 950 µL of a Nitro Blue Tetrazolium (NBT) mixture with TRIS buffer in 50 µL of sample, measured at the 550 nm wavelength. The level of H2O2 was determined during the oxidation of phenol red by H2O2, which was catalyzed with horseradish peroxidase and measured at the 610 nm wavelength. Indirect measurement of nitrites was performed by the precipitation of samples with 30% sulfo-salicylic acid, followed by vortexing and centrifugation at 3000 rpm for 15 min. The equal volumes of isolated supernatant and Griess’ reagent (containing 1% sulfanilamide in 5% phosphoric acid/0.1% naphthalene ethylenediamine-dihydrochloride) were incubated for 10 min and measured at the 550 nm wavelength. The TBARS concentration was determined by adding 400 µL of sample to 200 µL of TBA in 0.05 M NaOH, followed by 15 min incubation at 100 °C. Measurement was performed at the 530 nm wavelength.
(§3) The epinephrine method was used for SOD determination. By adding 100 µL of sample, the same volume of epinephrine, and 1000 µL of carbonate buffer, the measurement was performed at the 470 nm wavelength. The determination of CAT activity was based on the preparation of a mixture containing 100 µL of sample, 50 µL of catalase buffer, and 1000 µL of 10 mM H2O2, which was measured at the 230 nm wavelength.

[3] = test system: systemic oxidative stress parameters; assay: Systemic redox state (plasma, erythrocyte lysate) 24 h after carrageenan; type: in vivo, Wistar albino rats
Method: as §1, §2, §3

[4] = test system: COX-1 and COX-2; conditions: cited from earlier work

C[C@H](C(=O)O)c1cccc(C(=O)c2ccccc2)c1 [Dexketoprofen, reference compound]
IC50 [1]: 1.5 ± 0.6 nM
Local O2∙− concentration compared to untreated rats [2]: significantly decreased
Local SOD activity compared to untreated (negative control) rats [2]: remarkably improved
Local nitrites level (reduction, p < 0.05) ([2]; comparator not given): markedly reduced
Systemic CAT activity compared to Sol (untreated) rats ([3]; erythrocyte lysate): significantly reduced activity of SOD and CAT, as well as the GSH level, in untreated rats compared to Dex
Systemic GSH level compared to untreated rats ([3]; erythrocyte lysate): significantly reduced activity of SOD and CAT, as well as the GSH level, in untreated rats compared to Dex
Systemic SOD activity compared to Sol (untreated) rats ([3]; erythrocyte lysate): significantly reduced activity of SOD and CAT, as well as the GSH level, in untreated rats compared to Dex
Systemic H2O2 level compared to solvent rats ([3]; plasma): significantly lower
Systemic O2∙− level compared to untreated (Sol) rats ([3]; plasma): significantly lower
Systemic TBARS level compared to Sol (untreated) rats ([3]; plasma): significantly decreased

C[C@@H](C(=O)O)c1cccc(C(=O)c2ccccc2)c1 [(R)-ketoprofen]
Times lower COX inhibitory capacity than dexketoprofen [4]: 100 to 1000 times
